Values after ≈ are worked out from the molar mass of the structure shown.
What was measured:
Format in all cases: functional
Staphylococcus aureus [1] = assay: Antibacterial activity against erythromycin-susceptible Staphylococcus aureus 29213 by broth-microdilution method; settings: ATCC29213
Haemophilus influenzae [2] = assay: Antibacterial activity against ampicillin-resistant Haemophilus influenzae 33929 by broth-microdilution method
Streptococcus pneumoniae [3] = assay: Antibacterial activity against erythromycin-resistant Streptococcus pneumoniae 7701 expressing mef gene by broth-microdilution method
Streptococcus pyogenes [4] = assay: Antibacterial activity against erythromycin-resistant Streptococcus pyogenes 1323 expressing mef gene by broth-microdilution method
Moraxella catarrhalis = assay: Antibacterial activity against Moraxella catarrhalis by broth-microdilution method
Streptococcus pneumoniae [5] = assay: Antibacterial activity against erythromycin-susceptible Streptococcus pneumoniae 49619 by broth-microdilution method
Streptococcus pneumoniae [6] = assay: Antibacterial activity against erythromycin-resistant Streptococcus pneumoniae 700906 expressing […] gene by broth-microdilution method
Haemophilus influenzae [7] = assay: Antibacterial activity against ampicillin-susceptible Haemophilus influenzae by broth-microdilution method
Streptococcus pyogenes [8] = assay: Antibacterial activity against erythromycin-resistant Streptococcus pyogenes 2912 expressing erm gene by broth-microdilution method
Streptococcus pyogenes [9] = assay: Antibacterial activity against erythromycin-susceptible Streptococcus pyogenes 19615 by broth-microdilution method
Staphylococcus aureus [10] = assay: Antibacterial activity against methicillin-resistant Staphylococcus aureus 33591 by broth-microdilution method
Staphylococcus aureus [11] = assay: Antibacterial activity against MLSB-resistant Staphylococcus aureus 27660 by broth-microdilution method
Staphylococcus aureus [12] = assay: Antibacterial activity against macrolide-susceptible Staphylococcus aureus Smith by broth-microdilution method
Staphylococcus aureus [13] = assay: Antibacterial activity against macrolide-susceptible Staphylococcus aureus Smith infected in mouse
Staphylococcus aureus [14] = assay: Antibacterial activity against macrolide-resistant Staphylococcus aureus 7701 infected in mouse

SMILES	MIC (Staphylococcus aureus [1]) [µg/mL]	MIC (Haemophilus influenzae [2]) [µg/mL]	MIC (Streptococcus pneumoniae [3]) [µg/mL]	MIC (Streptococcus pyogenes [4]) [µg/mL]	MIC (Moraxella catarrhalis) [µg/mL]	MIC (Streptococcus pneumoniae [5]) [µg/mL]	MIC (Streptococcus pneumoniae [6]) [µg/mL]	MIC (Haemophilus influenzae [7]) [µg/mL]	MIC (Streptococcus pyogenes [8]) [µg/mL]	MIC (Streptococcus pyogenes [9]) [µg/mL]	MIC (Staphylococcus aureus [10]) [µg/mL]	MIC (Staphylococcus aureus [11]) [µg/mL]	MIC (Staphylococcus aureus [12]) [µg/mL]	ED50 (Staphylococcus aureus [13]) [mg/kg]	ED50 (Staphylococcus aureus [14]) [mg/kg]
C=C1CO[C@H]2[C@H](C)[C@@H](O[C@@H]3O[C@H](C)C[C@H](N(C)C)[C@H]3O)[C@](C)(C[C@@H](C)[C@H](N)[C@H](C)[C@@H](O)[C@](C)(O)[C@@H](CC)OC(=O)[C@@H]2C)OC1	4 (≈ 6.36 µM)	32 (≈ 50.9 µM)	0.125 (≈ 0.199 µM)	0.25 (≈ 0.398 µM)	0.5 (≈ 0.795 µM)	≤ 0.06	> 64	32 (≈ 50.9 µM)	64 (≈ 102 µM)	≤ 0.06	> 64	4 (≈ 6.36 µM)			
C=C1CO[C@H]2[C@H](C)[C@@H](O[C@@H]3O[C@H](C)C[C@H](N(C)C)[C@H]3O)[C@](C)(C[C@@H](C)C(=N)[C@H](C)[C@@H](O)[C@](C)(O)[C@@H](CC)OC(=O)[C@@H]2C)OC1	2 (≈ 3.19 µM)	64 (≈ 102 µM)	0.25 (≈ 0.399 µM)	0.5 (≈ 0.798 µM)	0.5 (≈ 0.798 µM)	0.125 (≈ 0.199 µM)	> 64	16 (≈ 25.5 µM)	64 (≈ 102 µM)	0.125 (≈ 0.199 µM)	> 64	2 (≈ 3.19 µM)			
C=C1CO[C@H]2[C@H](C)[C@@H](O[C@@H]3O[C@H](C)C[C@H](N(C)C)[C@H]3O)[C@](C)(C[C@@H](C)C(=O)[C@H](C)[C@@H](O)[C@](C)(O)[C@@H](CC)OC(=O)[C@@H]2C)OC1	1 (≈ 1.59 µM)	64 (≈ 102 µM)	0.25 (≈ 0.398 µM)	0.5 (≈ 0.796 µM)	0.5 (≈ 0.796 µM)	0.125 (≈ 0.199 µM)	> 64	64 (≈ 102 µM)	> 64	0.25 (≈ 0.398 µM)	> 64	1 (≈ 1.59 µM)			
C=C1CO[C@H]2[C@H](C)[C@@H](O[C@@H]3O[C@H](C)C[C@H](N(C)C)[C@H]3O)[C@](C)(C[C@@H](C)C(=O)[C@H](C)[C@@H]3NC(=O)O[C@]3(C)[C@@H](CC)OC(=O)[C@@H]2C)OC1	0.125 (≈ 0.191 µM)	4 (≈ 6.13 µM)		0.125 (≈ 0.191 µM)	≤ 0.06	≤ 0.06	> 64	2 (≈ 3.06 µM)	> 64	≤ 0.06	> 64	0.125 (≈ 0.191 µM)	0.125 (≈ 0.191 µM)	10	7
C=C1CO[C@H]2[C@H](C)[C@@H](O[C@@H]3O[C@H](C)C[C@H](N(C)C)[C@H]3O)[C@](C)(C[C@@H](C)/C(=N\O)[C@H](C)[C@@H](O)[C@](C)(O)[C@@H](CC)OC(=O)[C@@H]2C)OC1	1 (≈ 1.56 µM)	32 (≈ 49.8 µM)	0.25 (≈ 0.389 µM)	0.25 (≈ 0.389 µM)	0.25 (≈ 0.389 µM)	≤ 0.06	> 64	32 (≈ 49.8 µM)	> 64	0.125 (≈ 0.194 µM)	> 64	1 (≈ 1.56 µM)			
CC[C@H]1OC(=O)[C@H](C)[C@@H](O[C@H]2C[C@@](C)(OC)[C@@H](O)[C@H](C)O2)[C@H](C)[C@@H](O[C@@H]2O[C@H](C)C[C@H](N(C)C)[C@H]2O)[C@](C)(O)C[C@@H](C)C(=O)[C@H](C)[C@@H](O)[C@]1(C)O [ERYTHROMYCIN]	0.5 (≈ 0.681 µM)	4 (≈ 5.45 µM)	4 (≈ 5.45 µM)	16 (≈ 21.8 µM)	0.13 (≈ 0.177 µM)	≤ 0.06	> 64	4 (≈ 5.45 µM)	> 64	0.015 (≈ 0.0204 µM)	> 64	> 64			
CC[C@H]1OC(=O)[C@H](C)C(=O)[C@H](C)[C@@H](O[C@@H]2O[C@H](C)C[C@H](N(C)C)[C@H]2O)[C@](C)(OC)C[C@@H](C)C(=O)[C@H](C)[C@H]2N(CCCCn3cnc(-c4cccnc4)c3)C(=O)O[C@]12C [TELITHROMYCIN]													0.125 (≈ 0.154 µM)	17.2	17.2

— ChEMBL document CHEMBL1152201, “Synthesis of 3,6-bicyclolides: a novel class of macrolide antibiotics” (2008)
